Among the data in publication PMC9664868, “Dephospho-Coenzyme A Kinase Is an Exploitable Drug Target against Plasmodium falciparum: Identification of Selective Inhibitors by High-Throughput Screening of a Large Chemical Compound Library” (Antimicrobial Agents and Chemotherapy, 2022) are IC50 values, retold here.

Broadly, the IC50 is the concentration that gives 50% inhibition.

In one assay the target is PfDPCK (Plasmodium falciparum, UniProt Q8IL34). The experiment in a line: PfDPCK inhibition, enzyme-coupled fluorescence ADP detection assay (HTS and IC50 determination). The format is biochemical. The following applies: Table 2, PfDPCK inhibitor scaffolds Gr4, Gr5, Gr8; read-out: IC50. The procedure:
High-throughput screening against recombinant PfDPCK was performed using the Drug Discovery Initiative (DDI) full library, available from The University of Tokyo, composed of approximately 210,000 compounds. The primary assay was performed on 1,536-well white plate format with a final volume of 2 μL/well, containing 10 μM test compounds using a Multidrop Combi reagent dispenser (Thermo Fisher Scientific, Waltham, MA). The reaction was conducted in the assay buffer described above with 100 μM ATP and 50 μM dephospho-CoA. The assay was carried out at room temperature for 4 h in a closed plastic container with wet tissues. The reaction was stopped, and produced ADP was quantified using an enzyme-coupled fluorescence ADP detection assay, using PHERAstar microplate reader (BMG Labtech, Offenburg, Germany) with excitation at 540 nm and emission at 590 nm, as previously described ([17]). The inhibition level was calculated as the percentage inhibition of DPCK activity with each compound compared to the activity with only dimethyl sulfoxide (DMSO) as control (no inhibition) and that with no enzyme as 100% inhibition. IC50 values of the hit compounds were determined under the same assay conditions for the screening: Z′ factor, signal-to-background ratio (S/B), signal-to-noise ratio (S/N), and coefficient of variation (CV) were calculated to estimate the quality of screening system as previously described ([18], [38]).
The primary hits were reassayed in quadruplicate (n = 4) as in the primary screening. We next tested the confirmed secondary hits to exclude false positives that inhibit coupled fluorescence assay, but not PfDPCK. After exclusion of false positives, all tertiary hits were tested against human HsCOASY in the counterassay to exclude compounds that inhibit both PfDPCK and HsCOASY. The compounds showing >10% inhibition against HsCOASY were excluded from further studies. The IC50 values of the hit compounds were determined under the same assay conditions described as above for the primary screening, with the serially diluted compounds at 20, 10, 2.5, 0.5, and 0.1 μM at final concentrations. The assay was conducted in quadruplicate for each dilution, and IC50 values were calculated using GraphPad Software (San Diego, California USA).

Assay [1] relates to P. falciparum drug-sensitive 3D7 strain. The experiment in a line: Erythrocytic-stage parasite growth inhibition, diaphorase-coupled LDH assay, 3D7. In kind it is cell-based, Plasmodium falciparum. The following applies: Plasmodium falciparum, 3D7; Table S1; means ± SEM; read-out: IC50 (μM) Pf cell 3D7. The procedure: (§1) Selected hit compounds were also tested against erythrocytic-stage parasites of P. falciparum drug-sensitive 3D7 and drug-resistant Dd2 strains ([39]). For the phenotypic assay, parasite cultures were synchronized with 5% (wt/vol) D-sorbitol as previously described ([40]). A synchronized culture containing ring-stage parasites of 0.3% parasitemia was initiated with a culture volume of 25 μL/well on a 384-well plate. A series of diluted compounds (at final concentrations of 50, 10, 2, 0.4, and 0.08 μM) were used to calculate IC50 values. Mefloquine at 50 μM and atovaquone at 20 μM were used as no-growth control (100% inhibition). After 72 h of incubation, parasite growth was measured by diaphorase-coupled lactate dehydrogenase (LDH) assay as previously described ([41]). Absorbance at 650 nm was measured using SpectraMax Paradigm multimode microplate reader (Molecular Devices, San Jose, CA, USA). The IC50 values were calculated as described above.

Assay [2] concerns P. falciparum drug-resistant Dd2 strain. Nature of the assay: Erythrocytic-stage parasite growth inhibition, diaphorase-coupled LDH assay, Dd2. In kind it is cell-based, Plasmodium falciparum. As to conditions: Plasmodium falciparum, DD2; Table S1; means ± SEM; read-out: IC50 (μM) Pf cell Dd2. The procedure: as §1

Sequence of PfDPCK (Q8IL34 entry or part of it): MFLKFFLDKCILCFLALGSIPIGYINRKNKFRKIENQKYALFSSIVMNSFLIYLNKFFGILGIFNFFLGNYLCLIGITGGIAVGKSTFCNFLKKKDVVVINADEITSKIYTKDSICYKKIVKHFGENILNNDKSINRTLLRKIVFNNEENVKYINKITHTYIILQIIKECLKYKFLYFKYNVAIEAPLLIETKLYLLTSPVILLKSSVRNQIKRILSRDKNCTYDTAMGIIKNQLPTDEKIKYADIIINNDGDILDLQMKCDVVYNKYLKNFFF

As to `CC(C)(C)c1cc(C(=O)Cn2c(NCCO)nc3ccccc32)cc(C(C)(C)C)c1O` [Compound A-15], the half-inhibitory concentration (IC50) on PfDPCK came out at 1.93 ± 0.04 µM; in assay [1] it was 9.78 ± 0.23 µM; in assay [2], 9.26 ± 0.26 µM.
